In patent US6207172A, “Composition for the delivery of a pharmaceutical agent to a patient” (Warner-Lambert Company, priority 1998, dated 2001):
Where two headings read alike, the source gives them in different places.

Experiments:
[1] = Mean particle size of the PEG/PVP formulation after filtration; format: physicochemical; conditions: diameter; PEG 3350/10% PVP pH 7.4 phosphate buffer formulation, filtered through 0.45 μm PTFE filter
Protocol: After formation of the composition for delivering a pharmaceutical agent to a patient, the composition has been successfully extruded through both 0.45 and […] nylon filters, yielding a particle size of around 500 or 300 nm, respectively. In addition, the compositions can be autoclaved. The compositions have also been freeze dried and can be reconstituted by the addition of water or a buffer.
To the melted phase were then added 3 mL of 10% PVP in pH 7.4 phosphate buffer with stirring. The mixture was stirred during cool-down to room temperature. Before administration, the formulation was filtered through a 0.45 μm PTFE filter. […] The final concentration was calculated to be 10 mg/mL.
Butyl-[2,5-dimethyl-7-(2,4,6-trimethyl-phenyl)-7H-pyrrolo[2,3-d]pyrimidin-4-yl]-ethyl-amine (CRF-1 receptor antagonist) was formulated in the PEG/PVP system as follows. Thirty milligrams of Butyl-[2,5-dimethyl-7-(2,4,6-trimethyl-phenyl)-7H-pyrrolo[2,3-d]pyrimidin- 4-yl]-ethyl-amine were dissolved in 1.5 g of molten (65° C.) PEG 3350. To the melted phase were then added 1.5 mL of 10% PVP in pH 7.4 phosphate buffer with stirring. The mixture was stirred during cool-down to room temperature. Before administration, the formulation was filtered through a 0.45 μm PTFE filter. […] The final concentration was calculated to be 10 mg/mL.

[2] = Oral pharmacokinetics in fasted male Wistar rats; format: in vivo; conditions: for AUC(0-t) at 8 h / Cmax: rat, blood, po, 10 mg/kg, fasted male Wistar rats
Protocol: Single, 10-mg/kg oral gavage doses of the Butyl-[2,5-dimethyl-7-(2,4,6-trimethyl-phenyl)-7H-pyrrolo[2,3-d]pyrimidin- 4-yl]-ethyl-amine PEG/PVP formulation were given to 3 fasted male Wistar rats. In parallel, single, 10-mg/kg oral gavage doses of Butyl-[2,5-dimethyl-7-(2,4,6-trimethyl-phenyl)-7H-pyrrolo[2,3-d]pyrimidin- 4-yl]-ethyl-amine, as an aqueous suspension in 0.1% Tween 80, were administered to 3 additional fasted male Wistar rats. Blood samples were serially drawn over the 24-hour period following administration and assayed for Butyl-[2,5-dimethyl-7-(2,4,6-trimethyl-phenyl)-7H-pyrrolo[2,3-d]pyrimidin- 4-yl]-ethyl-amine concentrations.

tumor-bearing mice [3] = test: Deaths of tumor-bearing mice during 10 days oral gavage dosing; format: in vivo; conditions: 3 mice
Text: (§1) Single, 200-mg/kg daily oral gavage doses of the PEG/PVP formulation were given to 3 tumor-bearing mice for 10 days.

tumor-bearing mice [4] = test: Tumor growth inhibition in tumor-bearing mice (change in tumor size from Day 1); format: in vivo; conditions: PEG/PVP 200 mg/kg daily vs DMA/lactate 400 mg/kg (200 mg/kg twice daily), oral gavage, 10 days
Text: as §1

[5] = PEG/PVP emulsion vs 0.1% Tween 80 suspension, 10 mg/kg oral

| Structure (SMILES) | Mean particle size [1] | AUC(0-8), difference between the 2 dose groups [2, 5] | Cmax, difference between the 2 dose groups [2, 5] | half-life, difference between the 2 dose groups [2, 5] | AUC(0-t) at 8 h ([2]; PEG/PVP emulsion, 10 mg/kg single oral gavage, read-out: AUC(0-8), PEG/PVP-dosed rats) | Cmax ([2]; PEG/PVP emulsion, 10 mg/kg single oral gavage, read-out: Mean Cmax, PEG/PVP emulsion group) | AUC(0-t) at 8 h ([2]; aqueous suspension in 0.1% Tween 80, 10 mg/kg single oral gavage, read-out: AUC(0-8), suspension-dosed) | Cmax ([2]; aqueous suspension in 0.1% Tween 80, 10 mg/kg single oral gavage, read-out: Mean Cmax, 0.1% Tween group) | mice that died, DMA/lactate system (tumor-bearing mice [3]; DMA/lactate, 400 mg/kg (200 mg/kg oral gavage twice daily)) | mice that died, PEG/PVP preparation (tumor-bearing mice [3]; PEG/PVP, 200 mg/kg daily oral gavage) | Tumor growth inhibition, ratio PEG/PVP emulsion to DMA/lactate preparation (tumor-bearing mice [4]) |
| --- | --- | --- | --- | --- | --- | --- | --- | --- | --- | --- | --- |
| CCCCN(CC)c1nc(C)nc2c1c(C)cn2-c1c(C)cc(C)cc1C [Butyl-[2,5-dimethyl-7-(2,4,6-trimethyl-phenyl)-7H-pyrrolo[2,3-d]pyrimidin-4-yl]-ethyl-amine] | approximately 420 nm | Neither Cmax, AUC(0-8), nor half-life differed significantly between the 2 dose groups | Neither Cmax, AUC(0-8), nor half-life differed significantly between the 2 dose groups | Neither Cmax, AUC(0-8), nor half-life differed significantly between the 2 dose groups | 283 ng·h/mL | 283 ng/mL | 267 ng·h/mL | 267 ng/mL |  |  |  |
| CNc1cc2c(Nc3cccc(Br)c3)ncnc2cn1 [N^4-(3-Bromo-phenyl)-N^6-methyl-pyrido[3,4-d]pyrimidine-4,6-diamine] | approximately 400 nm |  |  |  |  |  |  |  | all 3 mice dosed with the DMA/lactate system died | None of the mice given the PEG/PVP preparation died | 4 fold |
